In test [1] the target is Dual specificity protein kinase CLK4 (Homo sapiens, UniProt Q9HAZ1). The test is classed as functional.
Test [2] has as its target Mitogen-activated protein kinase kinase kinase kinase 4 (Homo sapiens, UniProt O95819). It is filed as functional.
Test [3] has as its target Glycogen synthase kinase-3 beta (Homo sapiens, UniProt P49841). The test is classed as functional.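 Note: value comes from a broad kinome profiling panel, with GSK3B as the panel member.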
The target in test [4] is Cell division cycle 7-related protein kinase (Homo sapiens, UniProt O00311). It is filed as functional.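 Note: value obtained from a kinome-wide kinase panel.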
Test [5] concerns the target Homeodomain-interacting protein kinase 2 (Homo sapiens, UniProt Q9H2X6). It is filed as functional.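 Note: measured within a kinome-wide kinase profiling panel, HIPK2 being one panel member.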
The target in test [6] is Interleukin-1 receptor-associated kinase 4 (Homo sapiens, UniProt Q9NWZ3). It is filed as functional.
In test [7] the target is Melanin-concentrating hormone receptor 1 (Homo sapiens, UniProt Q99705). The experiment in a line: Late-stage fluorescence-based counterscreen for antagonists of the G-protein coupled receptor 7 (GPR7): cell-based dose response assay to identify antagonists of the melanin-concentrating hormone receptor 1 (MCHR1) Set 5. The test is classed as functional.
Test [8] concerns the target T1, Neuropeptides B/W receptor type 1 (Homo sapiens, UniProt P48145).
T1 sequence (P48145 whole entry): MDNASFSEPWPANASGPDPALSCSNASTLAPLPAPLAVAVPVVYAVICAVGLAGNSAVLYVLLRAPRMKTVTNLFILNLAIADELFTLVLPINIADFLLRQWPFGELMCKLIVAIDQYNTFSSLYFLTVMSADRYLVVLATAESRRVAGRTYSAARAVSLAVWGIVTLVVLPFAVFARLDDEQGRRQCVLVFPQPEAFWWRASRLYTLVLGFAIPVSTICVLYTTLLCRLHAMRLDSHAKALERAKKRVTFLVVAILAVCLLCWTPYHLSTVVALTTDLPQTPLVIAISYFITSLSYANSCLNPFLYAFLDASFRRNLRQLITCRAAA
Put plainly: human NPBW1 receptor blockade, IC50 – cell-based, fluorescence, dose response, set 5, late-stage follow-up (AID 588566). It is filed as functional.

Test [9] concerns the target T2, Protein disulfide-isomerase (Homo sapiens, UniProt P07237). Put plainly: inhibition of PDI-mediated insulin reduction – biochemical, turbidity, absorbance, cherry-picked samples, set 2, dose response (AID 624274). The test is classed as functional.
In test [10] the target is T2, Protein disulfide-isomerase. The experiment in a line: inhibition of PDI-driven insulin aggregation – biochemical, turbidity, absorbance, cherry-picked samples, dose response (AID 602350). It is filed as functional.
Test [11] addresses T3, Replicative DNA helicase DnaB (Mycobacterium tuberculosis, UniProt P9WMR3).
T3 sequence (P9WMR3 whole entry): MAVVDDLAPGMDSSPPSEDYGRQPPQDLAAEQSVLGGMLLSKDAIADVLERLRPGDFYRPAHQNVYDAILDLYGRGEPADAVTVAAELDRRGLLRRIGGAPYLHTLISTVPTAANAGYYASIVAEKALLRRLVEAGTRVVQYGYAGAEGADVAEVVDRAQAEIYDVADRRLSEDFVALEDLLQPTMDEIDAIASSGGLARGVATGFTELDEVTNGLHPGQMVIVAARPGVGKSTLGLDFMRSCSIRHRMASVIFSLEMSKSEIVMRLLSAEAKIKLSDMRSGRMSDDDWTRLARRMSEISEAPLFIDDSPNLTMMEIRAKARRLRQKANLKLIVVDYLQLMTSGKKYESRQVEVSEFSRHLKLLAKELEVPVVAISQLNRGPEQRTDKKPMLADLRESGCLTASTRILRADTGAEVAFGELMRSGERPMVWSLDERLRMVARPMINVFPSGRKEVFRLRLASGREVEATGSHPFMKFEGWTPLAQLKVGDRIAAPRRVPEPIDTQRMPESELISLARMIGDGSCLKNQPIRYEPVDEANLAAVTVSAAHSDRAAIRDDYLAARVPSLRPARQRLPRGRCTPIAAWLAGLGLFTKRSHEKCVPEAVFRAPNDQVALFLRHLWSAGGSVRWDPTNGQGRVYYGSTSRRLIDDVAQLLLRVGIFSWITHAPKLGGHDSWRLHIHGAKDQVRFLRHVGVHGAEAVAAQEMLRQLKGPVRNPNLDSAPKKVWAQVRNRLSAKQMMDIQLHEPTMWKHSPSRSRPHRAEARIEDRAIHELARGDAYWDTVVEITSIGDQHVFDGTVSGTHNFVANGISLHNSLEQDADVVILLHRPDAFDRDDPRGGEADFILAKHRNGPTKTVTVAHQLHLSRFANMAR
Put plainly: DnaB intein splicing inhibitors, dose response, biochemical, cell-free fluorescence (AID 449749). The test is classed as functional.

A short description of test [12]: cAMP pathway inhibition in counterscreen cell line – TR-FRET cAMP detection, counter-screen for MC4R biased antagonist project, dose response (AID 602305).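 Note: U2OS cells stimulated with forskolin near its EC80 as the cAMP inducer; potency is for inhibition of forskolin-stimulated cAMP signaling.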 The test is classed as functional, cell-based.
Test [13] has as its target DNA dC->dU-editing enzyme APOBEC-3A (Homo sapiens, UniProt P31941). Put plainly: SAR analysis of small molecule inhibitors of APOBEC3A DNA Deaminase via a fluorescence-based single-stranded DNA deaminase assay. The test is classed as functional. The following applies: read-out: IC50_Mean.
The target of a further test is T4, Protein RecA (Mycobacterium tuberculosis, UniProt P9WHJ3).
T4 sequence (P9WHJ3 whole entry): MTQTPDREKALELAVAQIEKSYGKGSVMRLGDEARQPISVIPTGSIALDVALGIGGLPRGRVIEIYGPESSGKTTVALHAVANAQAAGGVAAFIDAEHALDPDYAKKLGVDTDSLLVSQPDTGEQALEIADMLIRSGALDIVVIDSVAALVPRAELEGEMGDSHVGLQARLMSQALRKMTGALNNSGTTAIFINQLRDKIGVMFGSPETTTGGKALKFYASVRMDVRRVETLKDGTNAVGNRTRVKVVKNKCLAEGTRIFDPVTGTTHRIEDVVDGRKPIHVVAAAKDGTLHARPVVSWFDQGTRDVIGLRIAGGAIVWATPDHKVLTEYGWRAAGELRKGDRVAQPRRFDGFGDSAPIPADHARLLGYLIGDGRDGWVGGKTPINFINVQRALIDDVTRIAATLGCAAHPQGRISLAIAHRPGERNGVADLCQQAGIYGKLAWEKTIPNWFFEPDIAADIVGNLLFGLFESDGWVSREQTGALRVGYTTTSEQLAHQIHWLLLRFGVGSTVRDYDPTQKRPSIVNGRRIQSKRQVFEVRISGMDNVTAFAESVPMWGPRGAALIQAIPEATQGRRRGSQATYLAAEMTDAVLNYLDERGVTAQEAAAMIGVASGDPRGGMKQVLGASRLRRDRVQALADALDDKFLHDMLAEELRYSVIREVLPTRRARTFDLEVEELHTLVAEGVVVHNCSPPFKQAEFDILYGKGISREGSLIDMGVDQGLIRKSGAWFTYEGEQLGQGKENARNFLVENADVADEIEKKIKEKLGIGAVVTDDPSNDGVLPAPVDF
Put plainly: Fluorescence Cell-Free Homogeneous Dose Retest to Identify Inhibitors of RecA-Intein Splicing Activity. [Related pubchem assays (depositor defined):AID2097, AID2223, AID489010, AID492950]. It is filed as functional.

Another test has as its target Melanocortin receptor 4 (Homo sapiens, UniProt P32245). The experiment in a line: inhibitors of MC4R cAMP signaling – cell-based, TR-FRET, biased antagonists, dose response (AID 602298).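 Note: antagonist potency against agonist-stimulated cAMP production.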 The test is classed as functional.
Test [14] has as its target DNA dC->dU-editing enzyme APOBEC-3G (Homo sapiens, UniProt Q9HC16). The experiment in a line: inhibition of APOBEC3G ssDNA deamination – biochemical, fluorescence, single-stranded DNA substrate, SAR follow-up (AID 602136). It is filed as functional. The following applies: read-out: IC50_Mean.
Test [15] addresses 72 kDa type IV collagenase (Homo sapiens, UniProt P08253). The experiment in a line: Dose Response validation of uHTS RPN11 inhibitor hits using a MMP-2 Fluorescence assay. The test is classed as functional.
The next test concerns the target Prothrombin (Bos taurus, UniProt P00735). Put plainly: thrombin protease inhibitors – biochemical, fluorescence polarization, uHTS hits, dose response (AID 602369). It is filed as functional.
The target in test [16] is Intestinal-type alkaline phosphatase (Mus musculus, UniProt P24822). Put plainly: PubChem AID 488785. It is filed as functional.
For test [17], the target named is Induced myeloid leukemia cell differentiation protein Mcl-1 (Homo sapiens, UniProt Q07820). It is filed as functional.
Test [18] addresses Dual specificity tyrosine-phosphorylation-regulated kinase 1A (Rattus norvegicus, UniProt Q63470). The test is classed as biochemical, Homo sapiens.
In test [19] the target is 26S proteasome non-ATPase regulatory subunit 14 (Homo sapiens, UniProt O00487). Put plainly: inhibition of proteasome subunit RPN11 – biochemical, fluorescence polarization, uHTS hits, confirmation (AID 602368). The test is classed as functional.
Test [20] has as its target T5, Rac GTPase-activating protein 1 (Homo sapiens, UniProt Q9H0H5).
T5 sequence (Q9H0H5 whole entry): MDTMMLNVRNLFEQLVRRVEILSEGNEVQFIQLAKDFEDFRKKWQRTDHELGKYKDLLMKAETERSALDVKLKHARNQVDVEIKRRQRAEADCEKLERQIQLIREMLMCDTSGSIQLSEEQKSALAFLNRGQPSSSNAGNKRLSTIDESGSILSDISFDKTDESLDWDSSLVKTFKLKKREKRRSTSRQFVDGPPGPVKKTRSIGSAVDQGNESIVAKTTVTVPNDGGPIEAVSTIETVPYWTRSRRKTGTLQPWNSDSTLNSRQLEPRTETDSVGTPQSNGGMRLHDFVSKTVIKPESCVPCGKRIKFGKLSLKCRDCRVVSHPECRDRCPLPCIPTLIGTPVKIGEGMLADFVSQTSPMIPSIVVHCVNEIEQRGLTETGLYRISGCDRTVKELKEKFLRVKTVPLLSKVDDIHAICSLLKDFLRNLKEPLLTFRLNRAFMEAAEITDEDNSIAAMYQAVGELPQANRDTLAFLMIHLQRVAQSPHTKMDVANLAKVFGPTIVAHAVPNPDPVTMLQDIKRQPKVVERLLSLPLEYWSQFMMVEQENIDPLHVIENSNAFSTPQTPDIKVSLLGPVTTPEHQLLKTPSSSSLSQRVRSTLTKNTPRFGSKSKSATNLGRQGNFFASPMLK
The experiment in a line: blockers of MgcRacGAP-driven Rac1 GTP hydrolysis – biochemical, ADP Hunter fluorescence, primary and confirmatory, confirmation (AID 624330). The test is classed as functional.

Test [21] concerns the target Intestinal-type alkaline phosphatase (Homo sapiens, UniProt P09923). Put plainly: inhibition of human intestinal alkaline phosphatase – biochemical, dose response (AID 488876). It is filed as functional.
The target in test [22] is T6, Alkaline phosphatase, tissue-nonspecific isozyme (Homo sapiens, UniProt P05186).
T6 sequence (P05186 whole entry): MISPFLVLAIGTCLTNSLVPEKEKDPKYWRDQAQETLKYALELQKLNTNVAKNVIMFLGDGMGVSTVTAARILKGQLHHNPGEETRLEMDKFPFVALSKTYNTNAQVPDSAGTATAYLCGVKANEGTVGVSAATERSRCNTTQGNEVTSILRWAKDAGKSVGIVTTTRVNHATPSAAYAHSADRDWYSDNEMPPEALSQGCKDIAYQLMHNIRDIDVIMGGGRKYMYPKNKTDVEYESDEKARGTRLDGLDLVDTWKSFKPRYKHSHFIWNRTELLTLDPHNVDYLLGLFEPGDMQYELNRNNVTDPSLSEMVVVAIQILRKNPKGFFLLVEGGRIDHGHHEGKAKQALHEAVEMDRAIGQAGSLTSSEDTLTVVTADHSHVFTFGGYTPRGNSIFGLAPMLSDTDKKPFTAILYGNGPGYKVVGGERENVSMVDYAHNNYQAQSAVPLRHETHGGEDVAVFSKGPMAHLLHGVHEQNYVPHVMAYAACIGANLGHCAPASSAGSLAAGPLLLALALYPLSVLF
The experiment in a line: TNAP enzyme inhibition by screening hits, dose response, selectivity assay for mouse IAP inhibitor project, biochemical, human TNAP, uHTS hits (AID 488906). The test is classed as functional.

Test [23] concerns the target Multidrug resistance protein CDR2 (Candida albicans (strain SC5314 / ATCC MYA-2876) (Yeast), UniProt P78595). Put plainly: inhibition of Nile Red efflux via Candida CDR2 – S. cerevisiae AD1-8u, singleplex, Cherry Pick1 hits, dose response (AID 588604). It is filed as functional.

Calls of active or inactive are those of the source.

T2 sequence (P07237 whole entry): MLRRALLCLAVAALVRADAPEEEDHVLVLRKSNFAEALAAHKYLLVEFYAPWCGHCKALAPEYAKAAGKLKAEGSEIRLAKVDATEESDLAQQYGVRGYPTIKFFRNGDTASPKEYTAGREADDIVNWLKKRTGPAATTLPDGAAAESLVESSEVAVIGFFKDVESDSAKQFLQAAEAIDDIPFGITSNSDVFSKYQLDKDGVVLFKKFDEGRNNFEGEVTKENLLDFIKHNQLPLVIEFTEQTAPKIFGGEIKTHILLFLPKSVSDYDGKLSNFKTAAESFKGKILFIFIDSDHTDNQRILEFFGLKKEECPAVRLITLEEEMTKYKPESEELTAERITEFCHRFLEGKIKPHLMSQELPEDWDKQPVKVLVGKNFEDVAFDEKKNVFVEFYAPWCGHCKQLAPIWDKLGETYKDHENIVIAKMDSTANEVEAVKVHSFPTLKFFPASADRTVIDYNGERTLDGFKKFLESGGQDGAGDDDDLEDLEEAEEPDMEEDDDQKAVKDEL
Chain of Intestinal-type alkaline phosphatase (Mus musculus, UniProt P24822) (P24822 whole entry): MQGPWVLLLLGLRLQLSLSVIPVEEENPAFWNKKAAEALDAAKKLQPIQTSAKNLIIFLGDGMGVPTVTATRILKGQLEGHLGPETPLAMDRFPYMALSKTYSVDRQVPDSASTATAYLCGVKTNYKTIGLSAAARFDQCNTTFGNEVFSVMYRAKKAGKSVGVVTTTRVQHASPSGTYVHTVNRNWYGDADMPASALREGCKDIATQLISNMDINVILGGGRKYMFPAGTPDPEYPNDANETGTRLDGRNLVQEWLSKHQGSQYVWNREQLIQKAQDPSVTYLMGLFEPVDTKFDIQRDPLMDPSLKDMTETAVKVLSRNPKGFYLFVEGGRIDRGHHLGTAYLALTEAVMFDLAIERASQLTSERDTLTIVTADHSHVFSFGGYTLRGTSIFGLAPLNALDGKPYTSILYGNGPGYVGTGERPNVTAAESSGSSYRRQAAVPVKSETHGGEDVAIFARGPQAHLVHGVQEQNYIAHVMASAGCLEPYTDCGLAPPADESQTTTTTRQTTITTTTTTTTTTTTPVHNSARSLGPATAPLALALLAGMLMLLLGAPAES
Chain of Mitogen-activated protein kinase kinase kinase kinase 4 (O95819 whole entry): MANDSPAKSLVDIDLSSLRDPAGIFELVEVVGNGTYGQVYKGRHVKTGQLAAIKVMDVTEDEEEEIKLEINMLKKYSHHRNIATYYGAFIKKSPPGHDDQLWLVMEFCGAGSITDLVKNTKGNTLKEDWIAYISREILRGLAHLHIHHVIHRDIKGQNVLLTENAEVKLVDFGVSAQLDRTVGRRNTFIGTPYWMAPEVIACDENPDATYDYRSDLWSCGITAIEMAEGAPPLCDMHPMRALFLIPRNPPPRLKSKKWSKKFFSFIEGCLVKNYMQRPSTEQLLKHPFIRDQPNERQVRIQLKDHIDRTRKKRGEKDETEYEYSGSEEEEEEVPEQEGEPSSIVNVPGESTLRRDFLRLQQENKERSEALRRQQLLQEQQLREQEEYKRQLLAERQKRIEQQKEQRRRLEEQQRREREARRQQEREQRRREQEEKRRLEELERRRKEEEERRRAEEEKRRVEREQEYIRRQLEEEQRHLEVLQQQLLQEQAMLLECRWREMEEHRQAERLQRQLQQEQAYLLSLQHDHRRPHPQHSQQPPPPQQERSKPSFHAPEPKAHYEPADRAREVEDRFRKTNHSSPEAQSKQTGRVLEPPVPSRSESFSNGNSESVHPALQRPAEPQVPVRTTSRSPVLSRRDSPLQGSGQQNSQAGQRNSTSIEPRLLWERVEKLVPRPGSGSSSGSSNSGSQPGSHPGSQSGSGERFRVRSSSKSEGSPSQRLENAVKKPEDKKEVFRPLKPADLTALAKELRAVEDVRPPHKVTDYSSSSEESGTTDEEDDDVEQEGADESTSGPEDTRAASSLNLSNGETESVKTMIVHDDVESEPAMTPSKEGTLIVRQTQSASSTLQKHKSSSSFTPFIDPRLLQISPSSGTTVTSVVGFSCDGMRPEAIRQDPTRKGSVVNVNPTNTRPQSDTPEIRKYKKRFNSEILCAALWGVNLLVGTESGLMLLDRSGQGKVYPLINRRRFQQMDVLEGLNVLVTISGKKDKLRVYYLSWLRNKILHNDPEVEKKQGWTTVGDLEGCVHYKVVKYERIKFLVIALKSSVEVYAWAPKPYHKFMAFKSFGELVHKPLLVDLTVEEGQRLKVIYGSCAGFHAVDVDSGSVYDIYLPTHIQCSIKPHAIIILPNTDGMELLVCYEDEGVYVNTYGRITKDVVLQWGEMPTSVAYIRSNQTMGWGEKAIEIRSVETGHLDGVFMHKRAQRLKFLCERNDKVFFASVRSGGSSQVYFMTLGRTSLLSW
Chain of Intestinal-type alkaline phosphatase (Homo sapiens, UniProt P09923) (P09923 whole entry): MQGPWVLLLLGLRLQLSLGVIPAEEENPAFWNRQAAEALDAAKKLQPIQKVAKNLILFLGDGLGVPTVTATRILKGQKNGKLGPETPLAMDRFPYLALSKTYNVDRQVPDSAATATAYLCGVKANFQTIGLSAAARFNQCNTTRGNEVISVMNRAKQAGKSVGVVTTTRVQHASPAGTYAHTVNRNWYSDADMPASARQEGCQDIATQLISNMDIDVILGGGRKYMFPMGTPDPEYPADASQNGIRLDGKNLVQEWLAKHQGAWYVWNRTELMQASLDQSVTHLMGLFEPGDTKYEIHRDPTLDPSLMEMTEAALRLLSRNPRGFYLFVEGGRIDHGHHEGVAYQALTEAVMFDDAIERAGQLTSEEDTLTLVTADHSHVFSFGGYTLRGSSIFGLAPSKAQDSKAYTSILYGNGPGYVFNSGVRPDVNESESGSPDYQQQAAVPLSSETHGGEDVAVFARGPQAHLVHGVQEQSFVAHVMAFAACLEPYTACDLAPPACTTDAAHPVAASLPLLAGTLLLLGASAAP
Chain of Multidrug resistance protein CDR2 (P78595 whole entry): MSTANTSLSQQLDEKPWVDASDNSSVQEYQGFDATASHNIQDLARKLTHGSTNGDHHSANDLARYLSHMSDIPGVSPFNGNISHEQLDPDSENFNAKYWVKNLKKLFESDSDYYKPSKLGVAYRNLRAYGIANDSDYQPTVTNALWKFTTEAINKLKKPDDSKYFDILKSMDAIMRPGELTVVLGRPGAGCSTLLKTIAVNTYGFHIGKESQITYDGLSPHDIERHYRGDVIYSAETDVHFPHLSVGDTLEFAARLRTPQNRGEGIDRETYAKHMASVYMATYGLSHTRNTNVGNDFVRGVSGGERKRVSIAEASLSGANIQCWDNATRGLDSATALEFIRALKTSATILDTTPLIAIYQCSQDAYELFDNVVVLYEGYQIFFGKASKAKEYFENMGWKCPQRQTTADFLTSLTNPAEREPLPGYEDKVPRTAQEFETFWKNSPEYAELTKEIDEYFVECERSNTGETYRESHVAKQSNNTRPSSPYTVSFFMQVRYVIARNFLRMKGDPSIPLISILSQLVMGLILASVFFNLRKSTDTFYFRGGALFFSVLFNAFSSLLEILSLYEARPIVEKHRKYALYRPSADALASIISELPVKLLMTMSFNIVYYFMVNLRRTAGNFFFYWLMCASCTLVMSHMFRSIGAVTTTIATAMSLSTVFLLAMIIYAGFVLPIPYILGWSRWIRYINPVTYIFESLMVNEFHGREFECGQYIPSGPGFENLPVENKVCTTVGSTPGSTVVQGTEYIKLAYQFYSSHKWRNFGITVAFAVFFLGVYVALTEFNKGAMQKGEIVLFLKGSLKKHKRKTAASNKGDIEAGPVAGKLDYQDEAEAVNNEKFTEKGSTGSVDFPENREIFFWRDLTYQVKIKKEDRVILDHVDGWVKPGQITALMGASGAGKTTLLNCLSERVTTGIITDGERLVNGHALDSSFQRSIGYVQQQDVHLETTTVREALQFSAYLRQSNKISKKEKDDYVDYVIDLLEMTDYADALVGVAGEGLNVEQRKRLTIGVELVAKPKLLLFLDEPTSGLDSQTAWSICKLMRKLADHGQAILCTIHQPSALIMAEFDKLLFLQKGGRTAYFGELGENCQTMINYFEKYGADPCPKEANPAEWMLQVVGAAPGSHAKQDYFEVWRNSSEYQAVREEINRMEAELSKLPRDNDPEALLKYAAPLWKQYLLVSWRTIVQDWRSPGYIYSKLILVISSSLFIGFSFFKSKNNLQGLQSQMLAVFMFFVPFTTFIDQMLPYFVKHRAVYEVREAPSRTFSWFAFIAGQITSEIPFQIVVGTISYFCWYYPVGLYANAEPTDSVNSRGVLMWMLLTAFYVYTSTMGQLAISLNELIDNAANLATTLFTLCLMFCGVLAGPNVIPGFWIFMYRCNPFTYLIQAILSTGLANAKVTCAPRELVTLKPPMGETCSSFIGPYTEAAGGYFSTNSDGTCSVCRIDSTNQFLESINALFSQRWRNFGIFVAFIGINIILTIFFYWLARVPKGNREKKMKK
Chain of DNA dC->dU-editing enzyme APOBEC-3G (Q9HC16 whole entry): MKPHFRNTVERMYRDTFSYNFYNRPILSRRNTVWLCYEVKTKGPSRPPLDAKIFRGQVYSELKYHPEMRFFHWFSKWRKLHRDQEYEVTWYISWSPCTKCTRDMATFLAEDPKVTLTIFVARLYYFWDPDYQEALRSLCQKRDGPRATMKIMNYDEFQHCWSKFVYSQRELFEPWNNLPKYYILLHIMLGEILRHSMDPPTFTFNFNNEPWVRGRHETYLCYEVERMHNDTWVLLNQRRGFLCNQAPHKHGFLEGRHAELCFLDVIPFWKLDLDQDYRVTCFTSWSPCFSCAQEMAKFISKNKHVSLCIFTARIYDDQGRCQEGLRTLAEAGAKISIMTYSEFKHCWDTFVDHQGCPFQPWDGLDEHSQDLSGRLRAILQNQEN
Chain of 26S proteasome non-ATPase regulatory subunit 14 (O00487 whole entry): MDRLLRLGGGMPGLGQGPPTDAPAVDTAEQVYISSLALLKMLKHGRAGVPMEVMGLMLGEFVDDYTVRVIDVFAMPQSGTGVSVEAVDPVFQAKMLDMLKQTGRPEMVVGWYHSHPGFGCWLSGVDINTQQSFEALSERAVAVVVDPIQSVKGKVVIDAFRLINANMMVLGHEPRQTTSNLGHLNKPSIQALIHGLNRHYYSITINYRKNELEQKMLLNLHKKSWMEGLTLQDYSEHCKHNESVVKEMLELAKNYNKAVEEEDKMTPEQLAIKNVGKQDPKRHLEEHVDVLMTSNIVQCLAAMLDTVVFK

Take `CN(C)CCCOc1cc(-c2ccncc2)cc2[nH]nc(N)c12`: the Ki in test [1] was 79.4 nM (active); in test [2], 794 nM (active); in test [3], 6.31 µM (active); in test [4] it was 12.6 nM (active); in [5], > 3.16 µM (inactive); in [6] it was 158 nM (active).

As to `N#CC(c1ccccc1)c1cnn(Cc2cccc3ccccc23)c(=O)c1Cl` (stereo unspecified), the IC50 in test [7] was > 20 µM (inactive); in test [8] it was ~702 nM (active).

Consider `CC(NCC(O)COCc1ccc(Cl)cc1)c1ccccc1` (stereo unspecified), for which the AC50 is 9 nM (active) in test [9] and < 9 nM (active) in test [10].

Consider `CS(=O)(=O)c1nc([N+](=O)[O-])nn1CCCc1ccccc1`, for which the half-maximal activity concentration (AC50) in [11] was 7.7 µM (active). Further, the IC50 is > 64.5 µM (inactive) in [12], > 99 µM (inactive) in test [13], > 64.5 µM (inactive) on Melanocortin receptor 4 and > 99 µM (inactive) in test [14]. The EC50 on Protein RecA is 14.5 µM (active).

`O=C1/C(=C/c2ccc(O)c(O)c2)Oc2cc(O)ccc21` [SULFURETIN]: the IC50 in test [15] was > 100 µM (inactive); on Prothrombin it was 21.7 µM (active); in test [16], 19.7 µM (active); in [17], 1.53 µM (active); in [19] it was 23.8 µM (active); in test [20], 20.6 µM (active). Moreover, the IC50 in test [21] was 66.3 µM (active); in [22], 52.9 µM (active). The half-maximal activity concentration (AC50) in [18] was 2.32 µM (active). Also, the 50% effective concentration (EC50) in test [23] was 424 nM (active).

Source of the values: ChEMBL document CHEMBL1201862, “PubChem BioAssay data set” (2004).
